The half-life is the time needed for the level to fall by half in the phase considered. A higher half-life goes with slow loss.

Values after ≈ are worked out from the molar mass of the structure shown.

From patent US4002530A, “6-Aminopenicillanic acid derivative” (Recherche et Industrie Therapeutiques (R.I.T.), priority 1975, dated 1977) come the findings set out here.

One series deals with Escherichia coli. Kind of series: broth dilution test, minimum inhibitory concentration. Type of series: cell-based. The settings on record: 20 h, read-out: Minimum Inhibitory concentration. A general note: In broth dilution the organism is exposed to a series of concentrations in liquid medium.
Another series has as its system Alcaligenes faecalis. The description is as above. Type of series: cell-based. The settings on record: about 20 hours at 35° C, tested as monoammonium salt.
A further series deals with Salmonella typhi. The description is as above. Format: cell-based. The settings on record: Salmonella enterica, 20 h, read-out: Minimum Inhibitory concentration.
The subject of a further series is Salmonella anatum. The description is as above. Format: cell-based. The settings on record: Salmonella enterica, about 20 hours at 35° C, tested as monoammonium salt.
In another series the test system is Vibrio el tor. The series is described as above. Format: cell-based. The settings on record: about 20 hours at 35° C, tested as monoammonium salt.
A further series deals with Pseudomonas aeruginosa. The series is described as above. Type of series: cell-based. The settings on record: about 20 hours at 35° C, tested as monoammonium salt.
Series [1] in a line: in vivo. More on the design: species or system mice. The settings on record: mouse, sc, 20 mg/kg. The source says: (§1) Plasma samples were adequately diluted with sterile water and assayed according to the usual agar diffusion method, using Bacillus subtilis ATCC 6633 as the test organism.
Series [2] in a line: in vivo. More on the design: species or system rats. The settings on record: rat, sc, 20 mg/kg.
Excerpt: as §1

The next series is described as follows: physchem. Type of series: physicochemical. An excerpt: Antibiotic RIT D-2214 can be colorimetrically assayed by the classical hydroxylamine method of penicillin assay. […] Recoveries were estimated according to the hydroxylamine assay method.
In series [3] the test system is Gram-positive and Gram-negative bacteria. Kind of series: inhibitory activity against growth of bacteria. The settings on record: Gram-positive and Gram-negative bacteria. Type of series: cell-based. Here is the method: Antibiotic RIT D-2214 has been tested in form of the mono ammonium salt in position 3 of the penam nucleus and, for that reason, is herein below charcterized as this monoammonium salt.
The inhibitory levels were determined by the broth dilution test. A series of tubes containing varied concentrations of the monoammonium salt of antibiotic RIT D-2214 were inoculated with the test organism to determine the minimum concentration of the ammonium salt of antibiotic RIT D-2214 in mcg/ml. in the broth substrate which inhibited organism growth for a period of about twenty hours at 35° C.

Consider `CC1(C)S[C@@H]2[C@H](NC(=O)CSC[C@@H](N)C(=O)O)C(=O)N2[C@H]1C(=O)O` [RIT D-2214, 6-(D)-{[(2-amino-2-carboxy)-ethylthio]-acetamido}-penicillanic acid], for which the MIC in the series with Escherichia coli was found to be 1.25 µg/mL (≈ 3.31 µM); in the series with Alcaligenes faecalis, 1.6 µg/mL; in the series with Salmonella typhi, 0.6 µg/mL (≈ 1.59 µM); with Salmonella anatum, 0.6 µg/mL; with Vibrio el tor it was 0.6 µg/mL; in the series on Pseudomonas aeruginosa, 80 µg/mL. Further, the concentration at 5 min in the series “in vivo [1]” came to 13000 ng/mL; in the series “in vivo [2]”, 12000 ng/mL. Besides, the concentration at 0.25 h is 15000 ng/mL in “in vivo [1]” and 23000 ng/mL in the series “in vivo [2]”. Further, the concentration at 0.5 h was found to be 10000 ng/mL in “in vivo [1]” and 17000 ng/mL in the series “in vivo [2]”. In addition, the results for the concentration at 1 h in the series “in vivo [1]” and in the series “in vivo [2]” were 6000 ng/mL and 12000 ng/mL, respectively. Besides, in “in vivo [2]”, the concentration at 2 h came to 7500 ng/mL. The “stability under acid conditions” value in the series “physchem” is on record as “relatively stable under acid conditions”. Also, the half-life in the series “physchem” (reconstituted gastric juice, pH 1.3) turned out to be 25 min. Moreover, in series [3], the “inhibitory activity against the growth of bacteria” value is “exhibits inhibitory activity”.
